{"source": "ChEMBL document CHEMBL1126314", "about": "“A dideazatetrahydrofolate analogue lacking a chiral center at C-6, N-[4-[2-(2-amino-3,4-dihydro-4-oxo-7H-pyrrolo[2,3-d]pyrimidin-5-yl)ethyl]benzoyl]-L-glutamic acid, is an inhibitor of thymidylate synthase” (J Med Chem, 1992)", "key": {"[1]": {"test": "First-order rate constant was determined", "assay_type": "ADME"}, "[2]": {"test": "First-order rate constant of the compound", "assay_type": "ADME"}, "Thymidylate synthase": {"biological_target": "Thymidylate synthase (Mus musculus, UniProt P07607)", "sequence (P07607 whole entry)": "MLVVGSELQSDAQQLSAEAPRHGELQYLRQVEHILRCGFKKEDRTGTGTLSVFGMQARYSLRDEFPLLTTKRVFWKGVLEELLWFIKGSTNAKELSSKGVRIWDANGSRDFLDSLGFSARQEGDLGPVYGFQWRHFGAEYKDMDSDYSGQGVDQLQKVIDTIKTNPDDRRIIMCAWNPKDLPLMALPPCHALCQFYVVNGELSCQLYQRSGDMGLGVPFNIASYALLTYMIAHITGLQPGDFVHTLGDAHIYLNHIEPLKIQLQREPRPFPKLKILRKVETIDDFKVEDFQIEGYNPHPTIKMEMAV", "test": "Compound was evaluated for competitive inhibition of recombinant mouse thymidylate synthase"}, "L1210": {"tested_on": "L1210", "test": "Compound was evaluated for the half-maximal inhibition against mouse L1210 leukemic cell growth", "assay_type": "functional, cell-based"}, "[3]": {"test": "Km was determined", "assay_type": "ADME"}, "CCRF-CEM": {"tested_on": "CCRF-CEM", "test": "Compound was evaluated for the half-maximal inhibition against human CCRF-CEM lymphoblastic leukemic cell growth", "assay_type": "functional, cell-based"}}}
{"smiles": "Nc1nc(N)c2nc(CNc3ccc(C(=O)N[C@@H](CCC(=O)O)C(=O)O)cc3)cnc2n1", "note": "[AMINOPTERIN]", "values": [{"measurement": "Rate constant", "setting": "[1]", "value": 10.1}]}
{"smiles": "CN(Cc1cnc2nc(N)nc(N)c2n1)c1ccc(C(=O)N[C@@H](CCC(=O)O)C(=O)O)cc1", "note": "[METHOTREXATE]", "values": [{"measurement": "Rate constant", "setting": "[2]", "value": 0.9}]}
{"smiles": "Nc1nc2[nH]cc(CCc3ccc(C(=O)N[C@@H](CCC(=O)O)C(=O)O)cc3)c2c(=O)[nH]1", "note": "[PEMETREXED]", "values": [{"measurement": "Ki", "setting": "Thymidylate synthase", "value": 340, "unit": "nM"}, {"measurement": "IC50", "setting": "L1210", "value": 22, "unit": "nM"}, {"measurement": "Km", "setting": "[3]", "value": 0.8, "unit": "µM"}, {"measurement": "Rate constant", "setting": "[2]", "value": 400}, {"measurement": "IC50", "setting": "CCRF-CEM", "value": 16, "unit": "nM"}]}
{"smiles": "Nc1nc(O)c2c(n1)NCC(CCc1ccc(C(=O)NC(CCC(=O)O)C(=O)O)cc1)C2", "note": "(centres undefined)", "values": [{"measurement": "Ki", "setting": "Thymidylate synthase", "value": 30, "unit": "nM"}, {"measurement": "Rate constant", "setting": "[2]", "value": 32}]}
